The text below walks through data of patent US20150266864A1, “HETEROAROMATIC COMPOUNDS, METHOD FOR PREPARING THE COMPOUNDS, PHARMACEUTICAL COMPOSITIONS, USES AND METHOD FOR TREATING ACUTE AND CHRONIC PAIN” (CRISTÁLIA PRODUTOS QUÍMICOS FARMACÊUTICOS LTDA, priority 2012, published 2015).

Structures are written as SMILES.

Data set [1] has as its system Swiss mice. As to the kind of experiment: Hot plate model, assay for acute pain. It is filed as in vivo. Particulars: ip, 32.25 μmol/kg, plate 52° C., compared to morphine sulfate at the same dose. From the text:
The antinociceptive activity (AA) of the present invention selected compounds (C3, C9, C11, C12, C13, C15 and C17) was investigated in hot plate model [Hot Plate Model LE7406, Scientific Inc.] described by Kuraishi et al. [Kuraishi, Y., Harada, Y., Aratani, S., Satoh, M., Takagi, H. Brain Research 1983.273, 245-2523]. This method is valid to evaluate the analgesic activity of substances acting on the central nervous system. Swiss mice weighing 20-25 g were placed on a metal plate heated up to 52° C. The animals were withdrawn from the hot plate at the time they lead their forepaws toward the mouth to lick, being this an indicative of pain second Le Bars et al. [Le Bars, D., Gozariu, M., Cadden, S. W. Animal models of nociception. Pharmacol. Rev. 2001, 53 (4), 597-652]. In this way, it was analyzed how long the animal, treated or not (control) with the analgesic substance, remained on the plate at 52° C.; the longest residence time of an animal on the plate was 35 seconds. This time limit (or cut off) (35 s) was determined by the average of three measurements of latency control values, obtained for each animal multiplied by three, to prevent any kind of tissue injury on the footpad of animals's paw due to long permanence on the heated surface. The protocol consisted in the intraperitoneal (ip) injection of the selected compounds of the present invention at a dose of 32.25 μmol/kg. The antinociceptive activity was evaluated at intervals of 10 minutes until effect completely disappear and, compared to morphine sulfate ([…]) at the same dose of 32.25 μmoles/kg (12.2 mg/kg). The investigated parameter is the latency of reflex to paw withdrawal in response to thermal stimulus. The results were expressed as percentage of AA, which was calculated according to Equation 1 for each experiment.

Data set [2] has as its system rats subjected to SNL. As to the kind of experiment: Spinal nerve ligation (SNL) L5 model, thermal hyperalgesia. It is filed as in vivo, rat. The settings on record: for paw withdrawal latency, thermal hyperalgesia: after 7 days of treatment; for reversal of hyperalgesia signs associated with neuropathic pain: ip during 7 days, 32.25 μmol/kg. The procedure:
(§1) This experimental model was proposed by Kim and Chung [Kim, S. H.; Chung, J. M. Pain 1992, 50: 355-363] and consists of ligation of spinal nerves. Male Wistar rats, 180-220 g, were anesthetized with a mixture of ketamine and xylazine (60 mg/kg and 5 mg/kg, respectively) intraperitoneally. After the dorsal region asepsy, an incision was made between L5 and S1. The L6 transverse process was removed for locating the nerves L4 and L5, which were carefully isolated, and tight ligation of the L5 nerve with 6.0 silk thread was made, interrupting flow of the axon of the nerve. After this procedure, para-spinal muscles and skin were sutured, and then a topical antiseptic was applied. False operated animals (sham) were subjected to the same procedure, however the spinal nerve was not ligated.
This method aims to evaluate the animal behavior in response to hyperalgesic phenomenon resulting from the injury induced by the ligament of spinal nerve (L5). In this regard, paw withdrawal in response to thermal stimulus was used, and the thermal stimulus was induced by the radiant heat of an incandescent lamp bulb. The paw withdrawal test was performed as described for the assessment of thermal hyperalgesia in the sciatic nerve chronic constrictive injury model.
(§2) Differences were considered significant when p<0.05.
(§3) The treatment started on the 7th day after surgery. Compounds were diluted in water or DMSO and administered through intraperitoneal route on daily basis, during 7 days, at a dose of […]. The effectiveness of tested compounds was assessed on days 1, 3, and 7 days after treatment, always before the next administration of the compound. Latencies were also assessed on days 1, 3, and 7 after treatment interruption.

Data set [3] has as its system rats subjected to SNL. As to the kind of experiment: Spinal nerve ligation (SNL) L5 model, mechanical allodynia (digital Von Frey). It is filed as in vivo, rat. The settings on record: for reversal of allodynia signs associated with neuropathic pain: ip during 7 days, 32.25 μmol/kg. The procedure: as §1
To evaluate the development of mechanical allodynia, digital analgesimeter (Model EFF301; Insight Equipments), digitalized version coupled to a pointed filament (Von Frey model variant) was used. This test aims to assess changes in tactile sensitivity in response to a mechanical stimulus as a result of a neural damage. The device consisted of a hand-held force transducer fitted with a sensor tip, through which a pressure with increasing strength is applied against the footpad of the animals hindpaw to assess the threshold of paw withdrawal, that is, the digital analgesimeter records the maximal strength, in grams (g), in which the animal withstands until the paw withdrawal reflex.
Animals were placed in individual acrylic boxes and let to acclimate for 30 min before the beginning of the test. After this period, the thresholds of hindpaw withdrawal were determinded. For each hindpaw, five records of the withdrawal thresholds were made, and the average for each hindpaw was defined as the paw withdrawal threshold control.
as §3, §2

Data set [4] deals with Swiss-type male mice. The experiment in a line: RotaRod performance test, motor coordination. Particulars: for animal residence time on the rotational cylinder compared to controls: 15 minutes after administration; for Mice residence time on the rotational cylinder: 9 rpm, cut off 180 s, mean ± SEM. As for the experimental part:
The assessment of motor coordination in mice, by the rotarod performance test, was carried out to detect any possible sedative or muscle relaxant effect caused by the compounds of the present invention, previously tested in acute and neuropathic pain models. This test was carried out according to the method of described by Dunham & Miya and animal motor coordination was evaluated using RotaRod apparatus [Dunham M. S. & Miya. R. T. (1957). J. Amer. Pharmac. Assoc. Sci. Edit. 1957, 46, 208-209].
The RotaRod apparatus (Model 412 EFF, Insight Equipements, Brazil) is a device that measures motor coordination and thus evaluates balance alterations in mice. The apparatus consists of an acrylic box splited into four compartments with a rotational cylinder among them. The cylinder rotates at constant speed driven by a motor and regulated to the constant speed mode of 5-37 revolutions per minute (rpm). In this study the speed was set up to 9 rpm.
To remain on the rotational cylinder, the animal needs to move around, so that the motor coordination can be quantified. The four compartments have drop detection system, through the impact, a microprocessor circuit, for timing the permanence of the animal at the compartment, and for counting the number of falls.
The day before the test, Swiss-type male mice (19-25 g) were placed on the rotational cylinder, set up to the constant speed mode of 9 rpm for adaptation and learning. A group of 10 mice were used for each tested compound, and the total period spent on the rotational cylinder (in seconds) was recorded for a period of 180 seconds (cut off time) and it was accept a maximum of three falls for each animal. Motor coordination was assessed at times 0 (before treatment), 15, 30, 60 and 120 minutes after compounds administration at a dose of 32.25 μmol/kg.
All compounds were administered intraperitoneally (ip).
The Student's t-test was also used to compare means between two experimental groups. Differences were considered significant when p<0.05.
On the technique in general: The rotarod test checks motor coordination on a turning rod.

Data set [5] concerns Swiss mice. The experiment in a line: Hot plate model, assay for acute pain. It is filed as in vivo. The settings on record: ip, 32.25 μmol/kg.
Setting [6] is: after 7 days of 32.25 μmol/kg ip.
Where [7] appears, read: T 15 min after ip administration, 32.25 μmol/kg.
[8] abbreviates: T 30 min after ip administration, 32.25 μmol/kg (diazepam 2 mg/kg).
[9] abbreviates: T 60 min after ip administration, 32.25 μmol/kg (diazepam 2 mg/kg).
[10] abbreviates: T 120 min after ip administration, 32.25 μmol/kg (diazepam 2 mg/kg).

Consider `Cl.Cl.Fc1ccc(-c2n[nH]cc2CCN2CCCCC2)cc1.O` [C3, 1-{2-[3-(4-fluorophenyl)-1H-pyrazol-4-yl]ethyl}piperidine dihydrochloride monohydrate], for which the “antinociceptive activity (AA), hot plate” value in data set [1] was “exhibit antinociceptive activity of intensity and kinetics similar to morphine sulfate”. Besides, the “effect on thermal hyperalgesia after treatment interruption” value in data set [2] (setting [6]) is “still observed up to 1 day after treatment interruption”. In addition, in data set [2] (since the first day of treatment, 32.25 μmol/kg ip), the “increase in paw withdrawal latency” value was “statistically significant increase in paw withdrawal latency”. Further, the “paw withdrawal threshold, mechanical allodynia” value in data set [3] (after 3 days of treatment, 32.25 μmol/kg ip, p<0.05) is recorded as “significant (p<0.05) paw withdrawal threshold”. Also, the “analgesic effect on mechanical allodynia after treatment interruption” value in data set [3] (setting [6]) is “analgesic effect is maintained until the first day after treatment interruption”. Besides, in data set [4] (32.25 μmol/kg), the “animal residence time on the rotational cylinder compared to controls” value was “equal to the time observed for the negative control, and significantly higher than the time observed for the control amitriptyline hydrochloride”. For the same molecule, the “Mice residence time on the rotational cylinder” value (from here on “Mice residence time”) was found to be 180.0 s in data set [4] (setting [7]), 178.2 s in data set [4] (setting [8]), 178.7 s in data set [4] (setting [9]) and 180.0 s in data set [4] (setting [10]). For the same molecule, in data set [5], the “side effects compared to morphine” value is “no side effects of conventional morphine”.
On to `Cl.Cl.Fc1ccc(-c2n[nH]cc2CCN2CCOCC2)cc1.O` [C9, 4-{2-[3-(4-fluorophenyl)-1H-pyrazol-4-yl]ethyl}morpholine dihydrochloride monohydrate], for which the “antinociceptive activity (AA), hot plate” value in data set [1] is “exhibit antinociceptive activity of intensity and kinetics similar to morphine sulfate”. For the same molecule, the “paw withdrawal latency, thermal hyperalgesia” value in data set [2] (32.25 μmol/kg ip) is “statistically significant antinociceptive effect”. Also, in data set [2], the “reversal of hyperalgesia signs associated with neuropathic pain” value is “effective in reverse the hyperalgesia and allodynia signs”. Moreover, in data set [3], the “reversal of allodynia signs associated with neuropathic pain” value is “effective in reverse the hyperalgesia and allodynia signs”. Moreover, the “animal residence time on the rotational cylinder compared to controls” value in data set [4] (32.25 μmol/kg) is “equal to the time observed for the negative control, and significantly higher than the time observed for the control amitriptyline hydrochloride”. For the same molecule, the “Mice residence time” value in data set [4] (setting [7]) was 180.0 s; in data set [4] (setting [8]) it was 180.0 s; in data set [4] (setting [9]), 180.0 s; in data set [4] (setting [10]), 175.3 s. Besides, the “side effects compared to morphine” value in data set [5] is recorded as “no side effects of conventional morphine”.
For `CCOC(=O)C1(c2ccccc2)CCN(CCc2conc2-c2ccc(F)cc2)CC1.Cl` [C17, Ethyl 1-{2-[3-(4-fluorophenyl)-1,2-oxazol-4-yl]ethyl}-4-phenylpiperidine-4-carboxylate hydrochloride], in data set [1], the “antinociceptive activity (AA), hot plate” value was “exhibit antinociceptive activity of intensity and kinetics similar to morphine sulfate”. The “paw withdrawal latency, thermal hyperalgesia” value in data set [2] (32.25 μmol/kg ip) was “statistically significant antinociceptive effect”. Further, the “reversal of hyperalgesia signs associated with neuropathic pain” value in data set [2] was “effective in reverse the hyperalgesia and allodynia signs”. For the same molecule, the “reversal of allodynia signs associated with neuropathic pain” value in data set [3] was “effective in reverse the hyperalgesia and allodynia signs”. Moreover, the “Mice residence time” value in data set [4] (setting [7]) worked out at 127.4 s; in data set [4] (setting [8]), 153.3 s; in data set [4] (setting [9]), 163.2 s; in data set [4] (setting [10]), 175.6 s. Moreover, the “side effects compared to morphine” value in data set [5] was “no side effects of conventional morphine”.
